The results in this text go back to patent US20230145793A1, “SUBSTITUTED PYRIMIDINE OR PYRIDINE AMINE DERIVATIVE, COMPOSITION THEREOF, AND MEDICAL USE THEREOF” (SHANGHAI HAIYAN PHARMACEUTICAL TECHNOLOGY CO., LTD., priority 2020, published 2023).

Each structure is given as a SMILES string.

For one assay, the target named is T1, A2B receptor (Homo sapiens, UniProt P29275).
T1 construct: host or cells: CHO-K1 (co-expressing Gα15)
T1 sequence (P29275 1-332): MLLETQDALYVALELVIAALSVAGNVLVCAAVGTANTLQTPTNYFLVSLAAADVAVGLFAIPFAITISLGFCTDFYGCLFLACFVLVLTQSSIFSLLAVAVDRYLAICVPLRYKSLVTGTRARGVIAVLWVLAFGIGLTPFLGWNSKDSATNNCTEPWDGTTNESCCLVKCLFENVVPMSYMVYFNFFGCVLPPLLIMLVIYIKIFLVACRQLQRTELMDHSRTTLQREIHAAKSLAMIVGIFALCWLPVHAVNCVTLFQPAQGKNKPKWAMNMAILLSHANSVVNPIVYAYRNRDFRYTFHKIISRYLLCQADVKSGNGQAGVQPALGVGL
The experiment in a line: Test 1: inhibitory activity to the A2B receptor, cAMP HTRF in CHO-K1/ADORA2B/Gα15 cells, NECA 10 nM. The class given is cell-based. On the procedure:
(§1) Test 1: Inhibitory Activities to the A2A Receptor and the A2B Receptor CHO-K1/ADORA2A/Gα15 (GenScript, M00246) and CHO-K1/ADORA2B/Gα15 (GenScript, M00329) cells were cultured in a Ham's F-12 (Gibco, 31765092) medium containing 10% FBS, Zeocin (200 ug/mL), and Hygromycin B (100 ug/mL), or containing 10% FBS, G418 (400 ug/mL), and Hygromycin B (100 ug/mL) under culture conditions specified in the corresponding instruction. Screening procedure was as follows: 1. The cell density was adjusted with a serum-free medium to 6×10^5 cells/mL. 2. 5 uL of cell solution, 2.5 μL of NECA (Sigma, 119140-10MG), and 2.5 μL of compound solution were placed into each well of a 384-well plate (Greiner Bio-One, 784075) in sequence, the final concentration of NECA was 50 nM (CHO-K1/ADORA2A) or 10 nM (CHO-K1/ADORA2B), and the compound solution was subjected to 3-fold dilution from the final concentration of 3 uM. 3. The cells were placed still and cultured in an incubator at 37° C. for 30 min. 4. 5 μL of cAMP-d2 and 5 μL of cAMP-ab (Cisbio, 62AM4PEB) were added in sequence. 5. The 384-well plate was placed in dark at the room temperature for 1 h. 6. The plate was read (Victor X5, PerkinElmer), data were analyzed by XLfit nonlinear regression, and IC50 values of the compounds were calculated.
In general terms: Time-resolved FRET reads energy transfer from a long-lived donor to a nearby acceptor.

The next assay concerns the target T2, A2A receptor (Homo sapiens, UniProt P29274).
T2 construct: host or cells: CHO-K1 (co-expressing Gα15)
The experiment in a line: Test 1: inhibitory activity to the A2A receptor, cAMP HTRF in CHO-K1/ADORA2A/Gα15 cells, NECA 50 nM. The format is cell-based. The protocol: as §1

Usually IC50 stands for the point on the concentration scale where inhibition reaches its midpoint. Lower therefore signals inhibition by little substance.

T2 sequence (P29274 whole entry): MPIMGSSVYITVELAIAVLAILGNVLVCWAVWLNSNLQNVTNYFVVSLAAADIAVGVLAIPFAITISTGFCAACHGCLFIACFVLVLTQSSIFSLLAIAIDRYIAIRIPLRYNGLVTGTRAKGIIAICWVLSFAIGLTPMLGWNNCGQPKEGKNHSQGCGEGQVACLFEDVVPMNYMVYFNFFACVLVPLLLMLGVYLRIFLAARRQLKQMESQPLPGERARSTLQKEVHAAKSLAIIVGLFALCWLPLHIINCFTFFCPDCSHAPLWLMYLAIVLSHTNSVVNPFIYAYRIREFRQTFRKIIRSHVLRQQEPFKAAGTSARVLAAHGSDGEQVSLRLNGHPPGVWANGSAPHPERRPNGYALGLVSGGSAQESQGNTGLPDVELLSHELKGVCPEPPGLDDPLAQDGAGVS

For the compound `Cc1c(C#N)cccc1-c1nc(N)nc(-c2cn(Cc3cccc(C(C)(C)O)n3)nn2)c1F` [Compound L-2], the 50% inhibitory concentration (IC50) was 0.029 µM against A2B receptor and 0.062 µM against A2A receptor.

As for `CC(C)(O)c1cccc(Cn2cc(-c3nc(-c4cccc(C#N)c4)nc4c3OCC(=O)N4)nn2)n1` [Compound L-4], the IC50 was 0.006 µM against A2B receptor and 0.001 µM at A2A receptor.

Take `CC(C)(O)c1cccc(Cn2cc(-c3nc(-c4cccc(C#N)c4F)nc(N)c3F)nn2)n1` [Compound L-5]: the IC50 at A2B receptor amounted to 0.006 µM; against A2A receptor it was 0.004 µM.

Turning to `Cc1c(C#N)cccc1-c1nc(N)c(Cl)c(-c2cn(Cc3cccn(CC(C)(C)O)c3=O)nn2)n1` [Compound L-7], the results for the IC50 against A2B receptor and against A2A receptor were 0.007 µM and < 0.001 µM, respectively.

`Cc1c(C#N)cccc1-c1nc(N)c(Cl)c(-c2cn(Cc3cccn(C(C)C)c3=O)nn2)n1` [Compound L-8]: the IC50 against A2B receptor is 0.003 µM; against A2A receptor, < 0.001 µM.

For `CCc1nccc(Cn2cc(-c3nc(-c4cccc(C#N)c4C)nc(N)c3Cl)nn2)n1` [Compound L-11], the IC50 against A2B receptor is 0.014 µM; at A2A receptor, 0.001 µM.

Take `Cc1c(C#N)cccc1-c1nc(N)c(Cl)c(-c2cn(Cc3ccn(C4CC4)n3)nn2)n1` [Compound L-12]: the IC50 was 0.004 µM at A2B receptor and < 0.001 µM against A2A receptor.

Take `Cc1c(C#N)cccc1-c1nc(N)c(Cl)c(-c2cn(Cc3cccn(C)c3=O)nn2)n1` [Compound L-13]: the IC50 was found to be 0.013 µM on A2B receptor and 0.001 µM on A2A receptor.

As for `Cc1c(F)cccc1-c1nc(N)c(F)c(-c2cn(Cc3cccc(C(C)(C)O)n3)nn2)n1` [Compound L-14], the IC50 against A2B receptor was 0.014 µM; at A2A receptor, 0.017 µM.

Regarding `Cc1c(C#N)cccc1-c1nc(N)c(F)c(-c2cn(Cc3cccn(C4CC4)c3=O)nn2)n1` [Compound L-17], the values for the IC50 against A2B receptor and at A2A receptor were 0.007 µM and 0.001 µM, respectively.

Take `Cc1c(C#N)cccc1-c1nc(N)c(F)c(-c2cn(Cc3ccn(C4CC(F)(F)C4)n3)nn2)n1` [Compound L-19]: the IC50 on A2B receptor was 0.006 µM; on A2A receptor, 0.003 µM.

As for `Cc1c(C#N)cccc1-c1nc(N)c(Cl)c(-c2cn(Cc3cc[nH]n3)nn2)n1` [Compound L-20], the IC50 against A2B receptor came out at 0.012 µM; against A2A receptor, 0.004 µM.

On to `Cc1c(C#N)cccc1-c1nc(N)c(F)c(-c2cn(Cc3cc(F)n(C)n3)nn2)n1` [Compound L-21], for which the results for the IC50 on A2B receptor and on A2A receptor were 0.021 µM and 0.007 µM, respectively.

On to `Cc1c(C#N)cccc1-c1nc(N)c(Cl)c(-c2cn(Cc3cc(C(C)(C)O)[nH]n3)nn2)n1` [Compound L-22], for which the IC50 against A2B receptor is 0.001 µM; against A2A receptor, 0.01 µM.

With `Cc1c(C#N)cccc1-c1nc(N)c(F)c(-c2cn(Cc3cc[nH]n3)nn2)n1` [Compound L-27], the IC50 against A2B receptor is 0.002 µM; at A2A receptor, 0.007 µM.

Consider `Cc1c(C#N)cccc1-c1nc(N)c(F)c(-c2cn(Cc3ccn(CC(N)=O)n3)nn2)n1` [Compound L-29], for which the figures for the half-maximal inhibitory concentration (IC50) against A2B receptor and against A2A receptor were 0.008 µM and 0.009 µM, respectively.

As for `CCn1ccc(Cn2cc(-c3nc(-c4cccc(C#N)c4C)nc(N)c3F)nn2)n1` [Compound L-30], the IC50 is 0.001 µM against A2B receptor and < 0.001 µM against A2A receptor.

Regarding `Cc1c(C#N)cccc1-c1nc(N)c(Cl)c(-c2cnn(Cc3ccn(C)n3)c2)n1` [Compound L-33], the IC50 turned out to be 0.005 µM against A2B receptor and 0.002 µM against A2A receptor.

Consider `Cc1c(C#N)cccc1-c1nc(N)c(Cl)c(-c2cn(Cc3ccn(C(F)F)n3)nn2)n1` [Compound L-34], for which the IC50 against A2B receptor came out at 0.008 µM; on A2A receptor, 0.002 µM.

Turning to `Cc1c(C#N)cccc1-c1nc(N)c(F)c(-c2cn(Cc3ccn(CC(C)C)n3)nn2)n1` [Compound L-36], the IC50 against A2B receptor was 0.01 µM; against A2A receptor, 0.001 µM.

Take `Cc1c(C#N)cccc1-c1nc(N)c(F)c(-c2cn(Cc3ccn(CC(F)(F)F)n3)nn2)n1` [Compound L-37]: the IC50 at A2B receptor is 0.007 µM; against A2A receptor, 0.002 µM.

`Cc1c(C#N)cccc1-c1nc(N)c(F)c(-c2cn(Cc3ccn(CC4CC4)n3)nn2)n1` [Compound L-39]: the IC50 against A2B receptor was 0.007 µM; at A2A receptor it was 0.002 µM.

Turning to `Cc1c(C#N)cccc1-c1nc(N)c(F)c(-c2cn(Cc3cnn(C)n3)nn2)n1` [Compound L-47], the IC50 at A2B receptor was determined as 0.024 µM; at A2A receptor, 0.011 µM.

Take `Cc1c(C#N)cccc1-c1nc(N)c(F)c(-c2cn(Cc3ccn(C(C)(C)CO)n3)nn2)n1` [Compound L-49]: the IC50 came to 0.002 µM against A2B receptor and 0.001 µM against A2A receptor.

As to `Cc1c(C#N)cccc1-c1nc(N)c(F)c(-c2cn(Cc3ccn(C(C)(C)C)n3)nn2)n1` [Compound L-51], the half-maximal inhibitory concentration (IC50) against A2B receptor was determined as 0.006 µM; against A2A receptor, 0.03 µM.

Take `Cc1c(C#N)cccc1-c1nc(N)c(F)c(-c2cn(Cc3cccc(C4(O)COC4)n3)nn2)n1` [Compound L-53]: the IC50 at A2B receptor came to 0.004 µM; against A2A receptor, 0.002 µM.

On to `Cc1c(C#N)cccc1-c1nc(N)c(F)c(-c2cn(Cc3cccc(C(C)(C)C#N)n3)nn2)n1` [Compound L-54], for which the IC50 on A2B receptor amounted to 0.004 µM; at A2A receptor it was 0.003 µM.

Turning to `Cc1c(C#N)cccc1-c1nc(N)c(F)c(-c2cn(Cc3cccc(C(N)=O)n3)nn2)n1` [Compound L-56], the values for the IC50 against A2B receptor and at A2A receptor were 0.024 µM and 0.007 µM, respectively.

Take `Cc1c(C#N)cccc1-c1nc(N)nc(-c2cn(Cc3ccn(C)n3)nn2)c1F` [Compound L-59]: the IC50 on A2B receptor stood at 0.049 µM; against A2A receptor it was 0.063 µM.

`COCc1cccc(Cn2cc(-c3nc(N)nc(-c4cccc(C#N)c4C)c3F)nn2)n1` [Compound L-60]: the IC50 was found to be 0.073 µM at A2B receptor and 0.079 µM against A2A receptor.

As for `COCc1cccc(Cn2cc(-c3nc(-c4cccc(C#N)c4C)nc(N)c3F)nn2)n1` [Compound L-62], the IC50 came out at 0.003 µM against A2B receptor and 0.001 µM against A2A receptor.

Consider `Cc1c(C#N)cccc1-c1nc(N)c(F)c(-c2cn(Cc3cccc(C(C)(C)CO)n3)nn2)n1` [Compound L-63], for which the IC50 stood at 0.005 µM against A2B receptor and 0.001 µM on A2A receptor.

With `Cc1c(C#N)cccc1-c1nc(N)c(F)c(-c2cn(Cc3cccc(C4(O)CCC4)n3)nn2)n1` [Compound L-64], the IC50 is 0.004 µM at A2B receptor and 0.001 µM against A2A receptor.

Turning to `Cc1c(C#N)cccc1-c1nc(N)c(F)c(-c2cn(Cc3cccc(N4CCC(O)C4)n3)nn2)n1` [Compound L-65], the IC50 on A2B receptor stood at 0.022 µM; against A2A receptor, 0.005 µM.

For the compound `Cc1c(C#N)cccc1-c1nc(N)c(F)c(-c2cn(Cc3cccc(C4(O)CCCC4)n3)nn2)n1` [Compound L-66], the IC50 on A2B receptor came to 0.011 µM; against A2A receptor, 0.003 µM.

Consider `Cc1c(C#N)cccc1-c1nc(N)c(F)c(-c2cn(Cc3cccc(C(C)C)n3)nn2)n1` [Compound L-68], for which the IC50 against A2B receptor is 0.011 µM; on A2A receptor it was 0.002 µM.

Turning to `Cc1c(C#N)cccc1-c1nc(N)c(F)c(-c2cn(Cc3cccc(N4CCOCC4)n3)nn2)n1` [Compound L-69], the IC50 turned out to be 0.02 µM against A2B receptor and 0.005 µM against A2A receptor.

As for `Cc1c(C#N)cccc1-c1nc(N)c(F)c(-c2cn(Cc3cccc(CN4CCOCC4)n3)nn2)n1` [Compound L-70], the IC50 against A2B receptor is 0.013 µM; on A2A receptor, 0.002 µM.

Turning to `Cc1c(C#N)cccc1-c1nc(N)c(F)c(-c2cn(Cc3cccc(CN4CCN(C)CC4)n3)nn2)n1` [Compound L-71], the IC50 stood at 0.023 µM against A2B receptor and 0.006 µM against A2A receptor.

On to `Cc1c(C#N)cccc1-c1nc(N)c(F)c(-c2cn(Cc3cccc(N4CCN(C)CC4)n3)nn2)n1` [Compound L-72], for which the IC50 on A2B receptor came out at 0.014 µM; against A2A receptor it was 0.004 µM.

As to `Cc1c(C#N)cccc1-c1nc(N)c(F)c(-c2cn(Cc3cccc(C(F)F)n3)nn2)n1` [Compound L-73], the IC50 against A2B receptor worked out at 0.005 µM; against A2A receptor it was 0.003 µM.

Regarding `Cc1c(C#N)cccc1-c1nc(N)c(F)c(-c2cn(Cc3ccn(C(C)C)n3)nn2)n1` [Compound L-75], the results for the IC50 against A2B receptor and against A2A receptor were 0.0005 µM and < 0.001 µM, respectively.

On to `Cc1c(C#N)cccc1-c1nc(N)c(F)c(-c2cn(Cc3ccn(CC(C)(C)O)n3)nn2)n1` [Compound L-76], for which the IC50 on A2B receptor stood at 0.007 µM; against A2A receptor, 0.005 µM.

With `Cc1c(C#N)cccc1-c1nc(N)c(F)c(-c2cn(Cc3ccn(C4CCOC4)n3)nn2)n1` [Compound L-77], the IC50 against A2B receptor is 0.003 µM; against A2A receptor, 0.001 µM.

For the compound `COCCn1ccc(Cn2cc(-c3nc(-c4cccc(C#N)c4C)nc(N)c3F)nn2)n1` [Compound L-78], the IC50 against A2B receptor and on A2A receptor was 0.003 µM in each case.

Turning to `Cc1c(C#N)cccc1-c1nc(N)c(F)c(-c2cn(Cc3cc(C)n(C)n3)nn2)n1` [Compound L-79], the IC50 at A2B receptor turned out to be 0.025 µM; against A2A receptor, 0.019 µM.
